The values below come from patent US20260022142A1, “MACROCYCLIC IMMUNOMODULATORS” (Bristol-Myers Squibb Company, priority 2022, published 2026).

The structures appear in SMILES notation. Numbered stars: 1 amine (or outer) side, 2 acyl side, 3 side chain; on linkers, the order of the positions; unused ones are H or OH. Bridge positions count the residues as written; N and C are the ends. Square brackets hold non-standard residues; d marks the D form. Peptide text beside a SMILES is read from it. * marks the point of attachment. ξ: configuration not given here. Phe(4-COOH) = N[C@@H](Cc1ccc(C(=O)O)cc1)C(=O)O; Bip = N[C@@H](Cc1ccc(-c2ccccc2)cc1)C(=O)O; NH(CH2)14COOH = O=C(O)CCCCCCCCCCCCCCN*; Phe(3-Me) = Cc1cccc(C[C@H](N)C(=O)O)c1; βAsp = O=C(O)[C@H](CC(=O)[*:2])N[*:1]; Val(3-OH) = CC(C)(O)[C@H](N)C(=O)O; 4Pal = N[C@@H](Cc1ccncc1)C(=O)O; Cha = N[C@@H](CC1CCCCC1)C(=O)O; Cit = NC(=O)NCCC[C@H](N)C(=O)O; Ile(3ξ) = CCC(C)[C@H](N)C(=O)O; Thr(3ξ) = CC(O)[C@H](N)C(=O)O; 12Ado = NCCCCCCCCCCCC(=O)O; Carboxymethyl = O=C(O)C*; Orn = NCCC[C@H](N)C(=O)O; Aun = NCCCCCCCCCCC(=O)O; Dab = NCC[C@H](N)C(=O)O; Dap = NC[C@H](N)C(=O)O; AEEA = NCCOCCOCC(=O)O

T1 sequence (Q15116 25-288): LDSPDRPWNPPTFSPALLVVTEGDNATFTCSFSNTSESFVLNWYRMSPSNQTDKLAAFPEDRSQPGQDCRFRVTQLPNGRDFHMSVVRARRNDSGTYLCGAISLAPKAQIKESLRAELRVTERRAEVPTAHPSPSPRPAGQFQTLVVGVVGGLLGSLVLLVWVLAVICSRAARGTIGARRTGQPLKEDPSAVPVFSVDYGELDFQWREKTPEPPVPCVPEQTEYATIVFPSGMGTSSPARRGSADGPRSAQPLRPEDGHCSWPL

This assay addresses T1, PD-1/PD-L1 interaction (PE-labeled human PD-L1-Ig binding to Jurkat cell line over-expressing human PD-1) (Homo sapiens, UniProt Q15116).
T1 construct: expressed in transfected cells; host or cells: Jurkat
Briefly: Jurkat-PD-1 Cell Binding High-Content Screening Assay (CBA). The settings on record: Jurkat cell line over-expressing human PD-1; PE-labeled PD-L1-Ig 20 nM final; read-out: Jurkat hPD1-PDL1 IC50. Type of assay: cell-based. The method in brief: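 Jurkat cells over-expressing human PD-1 (8×10^3 per well, DMEM/10% FCS) preincubated with compound 2 h at 37° C, then PE-labeled human PD-L1-Ig (20 nM final) added for 1 h. Cells fixed with paraformaldehyde, Hoechst-stained, and bound fluorescence quantified by high-content imaging.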
Usually IC50 stands for the concentration that inhibits the measured activity by half. With `Cc1cccc(C[C@@H]2NC(=O)[C@H](CC(=O)O)NC(=O)[C@H](Cc3ccc(C(=O)O)cc3)NC(=O)[C@H](C)NC(=O)CSC[C@@H](C(=O)N[C@@H](CCN)C(=O)NCCOCCOCC(=O)N[C@@H](CCC(=O)O)C(=O)N[C@@H](CC(=O)NCCOCCOCC(=O)NCCCCCCCCCCCCCCC(=O)O)C(=O)O)NC(=O)[C@H](Cc3cnc[nH]3)NC(=O)[C@H](C(C)(C)O)NC(=O)[C@H](CC3CCCCC3)NC(=O)[C@H](CCN)NC(=O)[C@@H](CC(C)C)NC(=O)[C@H](CCCN)NC(=O)[C@H](Cc3ccc(C(=O)O)cc3)NC(=O)[C@H](Cc3ccc(-c4ccccc4)cc3)NC(=O)[C@H](Cc3ccc(C(=O)O)cc3)NC2=O)c1` [Compound 3884] ({CH2CO}-A[Phe(4-COOH)]D[Phe(3-Me)][Phe(4-COOH)][Bip][Phe(4-COOH)][Orn][dL][Dab][Cha][Val(3-OH)]HC[Dab][AEEA]E[βAsp][AEEA]-{NH(CH2)14COOH}; thioether N-14), the IC50 came out at 147 nM.

`CC(C)C[C@H]1NC(=O)[C@H](CCCN)NC(=O)[C@H](C(C)C)NC(=O)[C@H](Cc2ccc(-c3ccccc3)cc2)NC(=O)[C@H](C(C)C)NC(=O)[C@H](Cc2c[nH]c3ccccc23)NC(=O)[C@H](CC(=O)O)NC(=O)[C@H](Cc2ccc(OCC(=O)O)cc2)NC(=O)[C@H](CN)NC(=O)CSC[C@@H](C(=O)NCCCCCCCCCCC(=O)O)NC(=O)[C@H](CCCCN)NC(=O)[C@H](C(C)C)NC(=O)[C@H](CC2CCCCC2)NC(=O)[C@H](CCN)NC1=O` [Compound 2603] ({CH2CO}-[Dap]Y(Carboxymethyl)DWV[Bip]V[Orn][dL][Dab][Cha]VKC[Aun]-OH; thioether N-14): the IC50 was found to be 7.1 nM.

Regarding `CCC(C)[C@@H]1NC(=O)[C@H](Cc2ccc(-c3ccccc3)cc2)NC(=O)[C@H](C(C)C)NC(=O)[C@H](Cc2c[nH]c3ccccc23)NC(=O)[C@H](CC(=O)O)NC(=O)[C@H](Cc2ccc(OCC(=O)O)cc2)NC(=O)[C@H](CCN)NC(=O)CSC[C@@H](C(=O)NCCOCCOCC(=O)N[C@@H](CCCCN)C(=O)NCCCCCCCCCCCC(=O)O)NC(=O)[C@H](C(C)O)NC(=O)[C@H](C(C)C)NC(=O)[C@H](CC2CCCCC2)NC(=O)[C@H](CCN)NC(=O)[C@@H](CC(C)C)NC(=O)[C@H](CCCN)NC1=O` (stereo partly drawn) [Compound 3096] ({CH2CO}-[Dab]Y(Carboxymethyl)DWV[Bip][Ile(3ξ)][Orn][dL][Dab][Cha]V[Thr(3ξ)]C[AEEA]K[12Ado]-OH; thioether N-14), the IC50 came to 12.1 nM.

Turning to `CC(C)C[C@H]1NC(=O)[C@H](CCCN)NC(=O)[C@H](CCC(=O)O)NC(=O)[C@H](Cc2ccc(-c3ccccc3)cc2)NC(=O)[C@H](C(C)C)NC(=O)[C@H](Cc2c[nH]c3ccccc23)NC(=O)[C@H](CC(=O)O)NC(=O)[C@H](Cc2ccc(OCC(=O)O)cc2)NC(=O)[C@H](CN)NC(=O)CSC[C@@H](C(=O)N[C@@H](CCN)C(=O)NCCOCCOCC(=O)NCCCCCCCCCCC(=O)O)NC(=O)[C@H](CCCCN)NC(=O)[C@H](C(C)C)NC(=O)[C@H](CC2CCCCC2)NC(=O)[C@H](CCN)NC1=O` [Compound 2660] ({CH2CO}-[Dap]Y(Carboxymethyl)DWV[Bip]E[Orn][dL][Dab][Cha]VKC[Dab][AEEA][Aun]-OH; thioether N-14), the IC50 turned out to be 11.4 nM.

In the case of `Cc1cccc(C[C@@H]2NC(=O)[C@H](CC(=O)O)NC(=O)[C@H](Cc3ccc(OCC(=O)O)cc3)NC(=O)[C@H](CN)NC(=O)CSC[C@@H](C(=O)N[C@@H](CCN)C(=O)NCCOCCOCC(=O)NCCCCCCCCCCC(=O)O)NC(=O)[C@H](C(C)O)NC(=O)[C@H](Cc3ccc(O)cc3)NC(=O)[C@H](CC3CCCCC3)NC(=O)[C@H](CCN)NC(=O)[C@@H](CC(C)C)NC(=O)[C@H](CCCN)NC(=O)[C@H](Cc3ccc(O)cc3)NC(=O)[C@H](Cc3ccc(-c4ccccc4)cc3)NC(=O)[C@H](C(C)C)NC2=O)c1` (stereo partly drawn) [Compound 2577] ({CH2CO}-[Dap]Y(Carboxymethyl)D[Phe(3-Me)]V[Bip]Y[Orn][dL][Dab][Cha]Y[Thr(3ξ)]C[Dab][AEEA][Aun]-OH; thioether N-14), the IC50 is 34 nM.

As to `CC(=O)NCCCC[C@@H]1NC(=O)[C@H](Cc2ccc(-c3ccccc3)cc2)NC(=O)[C@H](Cc2ccc(O)cc2)NC(=O)[C@H](Cc2cccc(C)c2)NC(=O)[C@H](CC(=O)O)NC(=O)[C@H](Cc2ccc(OCC(=O)O)cc2)NC(=O)[C@H](CCCNC(=N)N)NC(=O)CSC[C@@H](C(=O)N[C@H](CC(N)=O)C(=O)NCCCCCCCCCCC(=O)O)NC(=O)[C@H](C(C)O)NC(=O)[C@H](C(C)C)NC(=O)[C@H](CC2CCCCC2)NC(=O)[C@H](CCN)NC(=O)[C@@H](CC(C)C)NC(=O)[C@H](CCCNC(N)=O)NC1=O` (stereo partly drawn) [Compound 3541] ({CH2CO}-RY(Carboxymethyl)D[Phe(3-Me)]Y[Bip]K(Ac)[Cit][dL][Dab][Cha]V[Thr(3ξ)]C[dN][Aun]-OH; thioether N-14), the IC50 worked out at 10 nM.

Take `Cc1cccc(C[C@@H]2NC(=O)[C@H](CC(=O)O)NC(=O)[C@H](Cc3ccc(OCC(=O)O)cc3)NC(=O)[C@H](C(C)C)NC(=O)CSC[C@@H](C(=O)N[C@@H](CCCCN)C(=O)NCCCCCCCCCCC(=O)O)NC(=O)[C@H](C(C)O)NC(=O)[C@H](C(C)C)NC(=O)[C@H](CC3CCCCC3)NC(=O)[C@H](CCN)NC(=O)[C@@H](CC(C)C)NC(=O)[C@H](CCCN)NC(=O)[C@H](C(C)C)NC(=O)[C@H](Cc3ccc(-c4ccccc4)cc3)NC(=O)[C@H](C(C)C)NC2=O)c1` (stereo partly drawn) [Compound 3471] ({CH2CO}-VY(Carboxymethyl)D[Phe(3-Me)]V[Bip]V[Orn][dL][Dab][Cha]V[Thr(3ξ)]CK[Aun]-OH; thioether N-14): the IC50 is 21.2 nM.

Turning to `Cc1cccc(C[C@@H]2NC(=O)[C@H](CC(=O)O)NC(=O)[C@H](Cc3ccc(OCC(=O)O)cc3)NC(=O)[C@H](CCCNC(=N)N)NC(=O)CSC[C@@H](C(=O)N[C@@H](CCN)C(=O)NCCCCCCCCCCC(=O)O)NC(=O)[C@H](CO)NC(=O)[C@H](C(C)(C)O)NC(=O)[C@H](CC3CCCCC3)NC(=O)[C@H](CCN)NC(=O)[C@@H](CC(C)C)NC(=O)[C@H](CCCN)NC(=O)[C@H](Cc3ccc(OCC(=O)O)cc3)NC(=O)[C@H](Cc3ccc(-c4ccccc4)cc3)NC(=O)[C@H](Cc3ccc(O)cc3)NC2=O)c1` [Compound 2111] ({CH2CO}-RY(Carboxymethyl)D[Phe(3-Me)]Y[Bip]Y(Carboxymethyl)[Orn][dL][Dab][Cha][Val(3-OH)]SC[Dab][Aun]-OH; thioether N-14), the IC50 turned out to be 6.4 nM.

`CCC(C)[C@@H]1NC(=O)[C@H](Cc2ccc(-c3ccccc3)cc2)NC(=O)[C@H](C(C)C)NC(=O)[C@H](Cc2c[nH]c3ccccc23)NC(=O)[C@H](CC(=O)O)NC(=O)[C@H](Cc2ccc(C(=O)O)cc2)NC(=O)[C@H](Cc2ccncc2)NC(=O)CSC[C@@H](C(=O)N[C@@H](CC(N)=O)C(=O)NCCOCCOCC(=O)N[C@@H](CCCN)C(=O)NCCCCCCCCCCC(=O)O)NC(=O)[C@H](CO)NC(=O)[C@H](C(C)C)NC(=O)[C@H](CC2CCCCC2)NC(=O)[C@H](CCN)NC(=O)[C@@H](CC(C)C)NC(=O)[C@H](CCCN)NC1=O` (stereo partly drawn) [Compound 3039] ({CH2CO}-[4Pal][Phe(4-COOH)]DWV[Bip][Ile(3ξ)][Orn][dL][Dab][Cha]VSCN[AEEA][Orn][Aun]-OH; thioether N-14): the IC50 was 10.5 nM.
